Assays:
spring wheat = test: Growth height of spring wheat, leaf treatment, Example 11; assay type: in vivo, spring wheat ("Opal" variety)
Protocol: (§1) The test plants--spring wheat ("Opal" variety), spring barley ("Union" variety) and spring rye ("Petkuser" variety)--were grown under greenhouse conditions in plastic dishes 11.5 cm in diameter, in a peat substrate provided with sufficient nutrients.
(§2) Leaf treatment was effected by spraying the plants at a growth height of 11 cm with aqueous formulations of the active ingredients, at three application rates.
(§3) The shortening effect caused by the compounds was shown by measurements of the height of the plants at the end of the experiment.
(§4) The prior art compound N,N,N-trimethyl-N-β-chloroethylammonium chloride (CCC, German Printed Application DAS No. 1,294,734) was used for comparison purposes.

Poa pratensis = test: Growth inhibition in lawns, preemergence treatment in the greenhouse; assay type: in vivo
Protocol: (§5) Plastic flowerpots having a volume of 300 cm^3 were filled with a sandy loam and the test plants placed therein (either as seed, as vegetatively reproduced species, or as potted plants, e.g., vines). For preemergence treatment, the active ingredients were suspended or emulsified in water as vehicle and sprayed onto the surface of the soil immediately after sowing by means of finely distributing nozzles. The potted vines were treated by spraying them with the correspondingly diluted liquor. For postemergence treatment, the agents were, as stated above, sprayed in water onto the leaves of the test plants, some liquor also falling onto the soil. In some special cases, solid active ingredients were first dissolved in dimethylformamide and then applied in a total liquor amount of 400 liters of water per hectare. For the postemergence treatment, the plants were first grown to a height of from 3 to 10 cm before being treated. With grasses, the first growth was cut, and the new growth treated 2 to 3 days after cutting. The temperature requirements of the plants were taken into account by placing them in cooler or warmer sections of the greenhouse. The experiments were run for from 4 to 6 weeks, during which time the plants were tended and their reaction to the various treatments was assessed.
(§6) The application rates are given in kg/ha of active ingredient, regardless of the method of application and the amount of water used.
(§7) A 0 to 100 scale was used for the evaluation, 0 denoting normal emergence or no damage (or no inhibition), and 100 denoting non-emergence or complete destruction of the plants. A distinction should be made in the influence on growth between desired changes without any appreciable disadvantageous phytotoxic effects (e.g., purely growth-regulating effects) and those of a phytotoxic herbicical character.

spring barley = test: Growth height of spring barley, leaf treatment, Example 11; assay type: in vivo, spring barley ("Union" variety)
Protocol: as §1, §2, §3, §4

potted vines = test: Tolerance by potted vines in greenhouse; spray application; assay type: in vivo
Protocol: as §5, §6, §7

SMILES: c1ccc(C2=NNC3C4CC(C5N=NC45)C23)cc1 (centres unmarked) [drawing 416]
- Plant height (spring wheat; 0.75 kg/ha): 26.5 cm
- Plant height, % of untreated control (spring wheat; 0.75 kg/ha): 86.0%
- Plant height (spring wheat; 1.50 kg/ha): 25.5 cm
- Plant height, % of untreated control (spring wheat; 1.50 kg/ha): 82.8%
- Plant height (spring wheat; 3.00 kg/ha): 24.0 cm
- Plant height, % of untreated control (spring wheat; 3.00 kg/ha): 77.9%

SMILES: [O-][N+]1=NC2C3CC(C4C3N4c3ccc(Br)cc3)C21 (centres unmarked)
- Growth after emergence, remark (Poa pratensis; 0.5 to 4.0 kg/ha): very short growth overall; grass compact
- inhibition at 500 g/ha (Poa pratensis; Poa pratensis, pre-emergence, 0.5 kg/ha, read-out: % growth inhibition after emergence): 50%
- inhibition at 1000 g/ha (Poa pratensis; Poa pratensis, pre-emergence, 1.0 kg/ha, read-out: % growth inhibition after emergence): 60%
- inhibition at 2000 g/ha (Poa pratensis; Poa pratensis, pre-emergence, 2.0 kg/ha, read-out: % growth inhibition after emergence): 60%
- inhibition at 4000 g/ha (Poa pratensis; Poa pratensis, pre-emergence, 4.0 kg/ha, read-out: % growth inhibition after emergence): 70%

SMILES: c1ccc(C2N=NC3C4CC(C5N=NC45)C23)cc1 (centres unmarked) [drawing 418]
- Plant height (spring barley; 0.75 kg/ha): 23.5 cm
- Plant height, % of untreated control (spring barley; 0.75 kg/ha): 84.5%
- Plant height (spring barley; 1.50 kg/ha): 23.0 cm
- Plant height, % of untreated control (spring barley; 1.50 kg/ha): 82.7%
- Plant height (spring barley; 3.00 kg/ha): 21.5 cm
- Plant height, % of untreated control (spring barley; 3.00 kg/ha): 77.3%

SMILES: N#Cc1c(Cl)cccc1Cl
- Potted vines - leaf damage (potted vines; 4.0 and 8.0 kg/ha): slight chlorosis
- Change in shoot growth (potted vines; 4.0 kg/ha): 15.3 cm
- Change in shoot growth (potted vines; 8.0 kg/ha): 15.7 cm
